Experimental data published in patent US20260275280A1, “DIRECTED DIFFERENTIATION PROTOCOLS TO DERIVE BONE FIDE SPINAL SENSORY INTERNEURONS” (THE REGENTS OF THE UNIVERSITY OF CALIFORNIA, priority 2022, published 2026).
“Also recorded” adds a separate entry of the source.

Assays:
CHIR-expanded EBs = experiment: Differentiation of CHIR-expanded EBs on Matrigel (IHC, RT-qPCR at day 10); type: cell-based, mouse; settings: DAPT added
Protocol: Embryoid body (EB) differentiation: To induce differentiation, EBs were dissociated into smaller clumps by a 5-7-minute treatment with cold 0.25% Trypsin (Gibco), followed by trituration. Trypsin was neutralized with 1:1 addition of Trypsin inhibitor (Sigma-Aldrich) and cells were pelleted by centrifugation at 1000RPM. Cell pellets were resuspended in N2/B27 medium (without growth factors) and plated onto a Matrigel precoated plate. In our experience, the single cell suspension of 100-150 EBs provided enough cells to seed one 24-well plate. […] At the end of 10 days, multiple neural processes can be visualized by phase contrast microscopy and cultures were either fixed with 4% PFA for immunohistochemistry or lysed to extract RNA in RLT buffer (Qiagen). […] CHIR withdrawal), or DAPT, a pro-differentiation agent (Crawford and Roelink, 2007) (FIG. 7J). […] This strategy was successful at restoring almost all dI identities in cultures taken from EBs both at the earliest passage and at the latest passage assessed (passage 7;

Wnt/β-catenin signaling = experiment: Inhibition of Wnt/β-catenin signaling during dI differentiation (IHC and RT-qPCR at day 9); type: cell-based, mouse
Protocol: (§1) The mouse ESC line, MM13, was routinely maintained in ES cell media (DMEM+20% FBS) with 100u/ml of mouse leukocyte inducing factor (LIF). […] To prepare cells for the differentiation, ESC colonies were dissociated with 0.25% trypsin and plated on gelatin coated plates at 1:10 dilution to reduce MEF transfer. Cells cultured on gelatin coated plates and allowed to proliferate for 1-2 days. To initiate differentiation, cells were plated on 0.1% gelatin coated 24-well CellBIND dishes (Corning) at 20,000 cells/ml density in 0.5 ml/well N2/B27 medium that contains 10 ng/ml basic fibroblast growth factor (bFGF). The N2/B27 medium contains 1:1 portions of Advanced Dulbecco's modified Eagle Media (DMEM) F12 (Hyclone) and Neurobasal media (Thermo Fisher Scientific) supplemented with 0.5×N2, 1×B27 supplement (with Vitamin A), 2 mM L-glutamine, 0.1 mM 2-mercaptoethanol (ME), and 1% BSA. On day 1, small colonies of cells can be observed attached to the bottom of the wells. On day 2, cells were supplemented with 10 ng/ml bFGF and 5 μM CHIR99021 for 24 hours to induce a neuromesodermal identity (Gouti et al., 2014). On day 3, media was changed as follows: for protocol 1, cells were exposed to 100 nM RA for 48 hrs. For protocol 2, 10 ng/ml human recombinant BMP4 (Thermo Fisher Scientific) was added concomitantly with 100 nM RA (RA+BMP4) for 48 hrs. For protocol 3, cells were exposed to 100 nM RA for 24 hrs, followed by a pulse of RA+BMP4 for another 24 hours. To induce terminal differentiation in all three conditions, the medium containing growth factors was replaced with basic N2/B27 medium at day 5, and cell allowed to differentiate to day 9. At the end of the differentiation, the cultures were fixed for immunohistochemical analysis or lysed to obtain RNA for RNA-Seq or quantitative reverse transcriptase PCR analysis.
Immunohistochemistry: For 2d differentiations, adherent cultures were first washed with 1×PBS and fixed with fresh cold 4% PFA for 10 minutes in the well. Following fixation, cultures were washed twice with 1×PBS to remove any remaining PFA. Cells were blocked with 1×PBS with 1% heat inactivated horse serum for 1 hour and primary antibodies are added in the blocking solution for an overnight incubation at 4C. Following washes, species appropriate secondary antibodies (Jackson Immuno Research Laboratories) were added in 1× PBT (PBS+0.1% […]) for 1 hr. The cultures were then washed with 1× PBT to remove traces of secondary antibodies and counterstained with DAPI to stain nuclei. Plates were then imaged on Zeiss LSM800 inverted confocal microscope at 10× magnification.
(§2) Quantitative (a) RT-PCR analysis: RNA was isolated with RNeasy Mini Kit (Qiagen, cat no. 74104), and converted to cDNA using Superscript IV First Strand Synthesis kit (Thermo Fisher Scientific). qRT-PCR was performed using SYBR Green PCR Master Mix (Applied Biosystems) on Roche 480 Lightcycler (Roche). The relative fold expression was calculated using 2-AACt method of comparing the expression of the target gene with that of the housekeeping gene glyceraldehyde 3-phosphate dehydrogenase (Gapdh). All experiments were repeated at least 2-3 times (technical replicates) from at least two independent differentiations (biological replicates), and data is represented as mean±SEM.
To assess the role of canonical Wnt signaling in dI fate specification, we added endo-IWR1 (IWR1e), a small molecule inhibitor which blocks p-catenin function (Chen et al., 2009) to dPs from day 4-6 (FIG. 5A). By day 9, the RA+BMP4 condition robustly induces dlis-dI3s (FIG. 5F-51, 5N-5P).

hESCs = settings: added to the cell dissociation media (Watanabe et al., 2007, Pettinato et al., 2015); cited from earlier work
mESCs = experiment: NMP induction from mESCs with bFGF and CHIR (Sox2/T expression); type: cell-based, mouse; settings: day 2 (48 hr bFGF alone) / day 3 (further 24 hr bFGF and CHIR)
Protocol: as §1, with “For protocol 2, 10 ng/ml human recombinant BMP4 (Thermo Fisher Scientific) was added concomitantly with 100 nM RA (RA+BMP4) for 48 hrs. For protocol 3, cells were exposed to 100 nM RA for 24 hrs, followed by a pulse of RA+BMP4 for another 24 hours. To induce terminal differentiation in all three conditions, the medium containing growth factors was replaced with basic N2/B27 medium at day 5, and cell allowed to differentiate to day 9.” left out, “analysis. […]” for “analysis.”

[1] = tested on: mESCs-derived NMPs / NPCs; experiment: Bulk RNA-Seq differential expression and qRT-PCR after RA or RA+BMP4 treatment; type: cell-based, mouse
Protocol: Bulk-RNA sequencing and data processing: Total cell lysate was obtained in buffer RLT (Qiagen) at different time points from three independent differentiations (biological replicates) conducted parallelly. RNA extraction was performed using RNeasy mini kit (Qiagen) and the quality was determined using Agilent Technologies 2100 Bioanalyzer and only samples with a RIN score >8.0 were sequenced. Stranded libraries were constructed using Universal plus mRNA sequencing kit (NuGEN) and sequenced onto 2 lanes of NovaseqS1 to generate 30 million reads/sample. Obtained reads were aligned to the latest mouse reference genome (mm10) using the STAR spliced read aligner. Pearson correlation and principal component analysis (PCA) was performed to determine the similarities among the samples and replicates. Differentially expressed genes were identified using DESeq and EdgeR package on R platform. The candidate genes were selected using cutoff false discovery rate (FDR <0.05) and log fold change (>2). Differentially expressed gene lists were further subjected to Enrichr, Metascape (Zhou et al., 2019) and DAVID functional annotation tools to identify enriched gene ontology (GO) categories.
as §2
We took advantage of the directed differentiation protocols to investigate the unresolved mechanisms by which RA and BMP direct dI fate specification. To further validate the use of a stem cell model, we first assessed the genetic basis of the fate decisions mediated by RA signaling. During the 24 hr pulse of RA at day 3, Pax3 levels gradually increase, while T expression concomitantly declines (FIG. 12A). […] To identify the transcriptional changes occurring during this first commitment step, we performed bulk RNA-Seq at day 3 (NMP state), day 3.25 (early transcriptional response to RA) and day 4 (dP state1) (FIG. 11B).
We hypothesized that the addition of BMP4 to NPCs in dP state1, directs them to a more dorsal dP state, i.e. dP state2 (FIG. 11A). To define the transcriptional changes occurring after BMP4 addition, we performed bulk RNA-Seq at day 4 (dP state1), day 4.25 (early transcriptional response to RA+BMP4) and at day 5 (dP state2) (FIG. 4A). […] 78 genes, out of 411, were common between both time points (FIGS. 4B, 13B). Focusing on these common genes, we identified enriched functional processes using GO analyses. The GO terms included the BMP signaling pathway (FIG. 4C, Table 3), confirming that the analysis identified BMP responsive genes.

Wnt-signaling genes = experiment: RT-qPCR of selected Wnt genes at day 5 (RA±BMP4, Noggin); type: cell-based, mouse
Protocol: as §2
Additionally, we also found enriched GO terms related to Wnt signaling across three functional categories (FIG. 4C). […] (FIGS. 4D, 4E, 12B). Selected Wnt-signaling genes were further assessed in a qPCR analysis of day 5 NMPs to validate whether they are BMP4-responsive.

[2] = inhibitor added to RA+BMP4 (protocol 3) from day 4, 48 hours, day 9

In the case of `C[C@H](NC(=O)Cc1cc(F)cc(F)c1)C(=O)N[C@H](C(=O)OC(C)(C)C)c1ccccc1` [DAPT], the “Tuj1+ neurites” value (CHIR-expanded EBs; day 10, IHC) is reported as “increased sprouting of Tuj^+ neurites; also recorded: modest effect increasing the number of Tuj1+neurites” and the “NeuN and Tubb3 expression compared to DMSO” value (CHIR-expanded EBs; day 10, RT-qPCR) is reported as “did not significantly augment NeuN and Tubb3 expression”.

With `Oc1nc(-c2ccc(C(F)(F)F)cc2)nc2c1CSCC2` [XAV939] the “dI1 and dI2 differentiation” value (Wnt/β-catenin signaling; [2]) was “most strongly suppresses the differentiation of the BMP4-dependent dI1/dI2s”, the dI3 differentiation (Wnt/β-catenin signaling; [2]) was “more modest effect on dI3s” and the “dI4, dI5, dI6 fates” value (Wnt/β-catenin signaling; [2]) was “increase in the expression of dI4-dI6 specific genes”. For the same molecule, the “dP markers Pax3, Pax7, Olig3” value (Wnt/β-catenin signaling; inhibitor added to RA+BMP4 condition) was “prevents both the suppression of Pax7+dPs and induction of Olig3+dPs”.

For `C[C@@H](N)[C@H]1CC[C@H](C(=O)Nc2ccncc2)CC1` [Y-27632], the “apoptosis upon dissociation and EB formation” value (hESCs) is listed as “significantly inhibit apoptosis and enhance the EB formation”.

In the case of “bFGF: human basic fibroblast growth factor”, the “Expression of Sox2 and T” value (mESCs) is reported as “upregulate Sox2 but not T”.

B1: BMP4: human recombinant bone morphogenetic protein 4 (protein, UniProt P12644 293-408, looked up)
Bone morphogenetic protein 4: SPKHHSQRARKKNKNCRRHSLYVDFSDVGWNDWIVAPPGYQAFYCHGDCPFPLADHLNSTNHAIVQTLVNSVNSSIPKACCVPTELSAISMLYLDEYDKVVLKNYQEMVVEGCGCR
In the case of B1, the “upregulated genes common between both time points” value ([1]; 6 hrs and 24 hrs of BMP4+RA treatment) is reported as 78 genes, the genes upregulated ([1]; 6 hrs of BMP4 addition (day 4.25) vs day 4) is reported as 106 genes and the genes upregulated ([1]; 24 hrs of BMP4 exposure (day 5) vs day 4) is reported as 305 genes. For the same molecule, the “expression of selected Wnt-signaling genes” value (Wnt-signaling genes; day 5, addition of BMP4 compared to RA alone) was “expression of all genes tested significantly increased”.

B2: Noggin: a BMP signaling inhibitor (protein, UniProt Q13253 28-232, looked up)
Noggin: QHYLHIRPAPSDNLPLVDLIEHPDPIFDPKEKDLNETLLRSLLGGHYDPGFMATSPPEDRPGGGGGAAGGAEDLAELDQLLRQRPSGAMPSEIKGLEFSEGLAQGKKQRLSKKLRRKLQMWLWSQTFCPVLYAWNDLGSRFWPRYVKVGSCFSKRSCSVPEGMVCKPSKSVHLTVLRWRCQRRGGQRCGWIPIQYPIISECKCSC
In the case of B2, the “upregulation of Wnt expression” value (Wnt-signaling genes; Noggin concomitantly added with BMP4 on day 4) is reported as “upregulation of Wnt expression was suppressed”.
